Data reported in US12258337B2, “Bicyclic CX3CR1 receptor agonists” (Board of Regents, The University of Texas System, priority 2019, dated 2025).

Legend:
Type in all cases: cell-based
hCX3CR1 = target: T1, hCX3CR1 (Homo sapiens, UniProt P49238); assay: Suchi5 assay (HEK/NatClytin/CNG/Suchi5 transiently transfected hCX3CR1, Fluo-8 Ca2+ readout); set-up: expressed in transfected cells; stably expresses a Ca2+ sensitive photo-protein; conditions: Suchi5 assay, HEK/NatClytin/CNG/Suchi5 transfected with hCX3CR1; read-out: hCX3CR1 agonism EC50
T1 sequence (P49238 1-355): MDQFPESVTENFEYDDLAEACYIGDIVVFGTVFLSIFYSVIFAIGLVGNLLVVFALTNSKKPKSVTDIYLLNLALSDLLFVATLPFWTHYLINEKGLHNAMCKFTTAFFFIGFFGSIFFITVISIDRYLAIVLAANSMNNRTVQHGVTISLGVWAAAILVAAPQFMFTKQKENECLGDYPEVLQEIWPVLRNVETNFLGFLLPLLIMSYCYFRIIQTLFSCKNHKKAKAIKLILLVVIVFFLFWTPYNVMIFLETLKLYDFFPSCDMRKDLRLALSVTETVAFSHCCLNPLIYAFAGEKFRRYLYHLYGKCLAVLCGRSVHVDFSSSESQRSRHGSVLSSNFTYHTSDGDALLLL
Procedure, shortened: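 HEK/NatClytin/CNG cells overexpressing Gαiq chimera Suchi5, transiently transfected with hCX3CR1, seeded 24 h before assay. Cells loaded 1 h at RT with 0.5X Fluo-8 in Tyrode buffer (pH 7.4); compounds injected on FLIPR and Ca2+ kinetic fluorescence followed for 90 s. Agonist: recombinant human fractalkine (CX3CL1).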

mCX3CR1 = target: T2, mCX3CR1 (Mus musculus, UniProt Q9Z0D9); assay: Ga16 assay, CX3CR1 agonism, Ca2+ sensitive photo-protein readout (FLIPRTETRA); conditions: mouse CX3CR1 cell line
T2 construct: expressed in transfected cells; stably expresses a Ca2+ sensitive photo-protein
T2 sequence (Q9Z0D9 1-354): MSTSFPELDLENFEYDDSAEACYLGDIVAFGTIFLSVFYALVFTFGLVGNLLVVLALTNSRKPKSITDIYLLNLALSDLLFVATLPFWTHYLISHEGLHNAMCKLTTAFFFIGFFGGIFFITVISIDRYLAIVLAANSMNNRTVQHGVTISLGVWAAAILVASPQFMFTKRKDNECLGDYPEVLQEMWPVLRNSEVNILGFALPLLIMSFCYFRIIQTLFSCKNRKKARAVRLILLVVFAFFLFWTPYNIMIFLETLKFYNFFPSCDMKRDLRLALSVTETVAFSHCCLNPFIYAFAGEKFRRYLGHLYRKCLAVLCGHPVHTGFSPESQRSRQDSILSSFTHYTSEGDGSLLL
Procedure, shortened: (§1)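 Cells expressing human, mouse or rat CX3CR1 with a stably expressed Ca2+-sensitive photoprotein were loaded with 10 μM coelenterazine in tyrode buffer pH 7.4 for 3 h at room temperature. Agonist-mode luminescence kinetics were recorded for 90 s after compound injection on FLIPRTETRA. Dose-response runs were done in quadruplicate, with fractalkine as the reference agonist.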

rCX3CR1 = target: T3, rCX3CR1 (Rattus norvegicus, UniProt P35411); assay: as above; conditions: rat CX3CR1 cell line
T3 construct: expressed in transfected cells; stably expresses a Ca2+ sensitive photo-protein
T3 sequence (P35411 1-354): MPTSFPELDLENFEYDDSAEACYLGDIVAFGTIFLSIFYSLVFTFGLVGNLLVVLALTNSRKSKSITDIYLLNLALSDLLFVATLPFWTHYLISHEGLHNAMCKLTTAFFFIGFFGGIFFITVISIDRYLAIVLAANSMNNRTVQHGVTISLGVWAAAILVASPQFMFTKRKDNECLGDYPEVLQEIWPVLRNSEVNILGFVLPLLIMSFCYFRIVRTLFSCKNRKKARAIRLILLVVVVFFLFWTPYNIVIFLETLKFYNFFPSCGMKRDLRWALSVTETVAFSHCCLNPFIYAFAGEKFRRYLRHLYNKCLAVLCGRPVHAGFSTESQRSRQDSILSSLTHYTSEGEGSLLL
Procedure, shortened: as §1

Compound | EC50 (hCX3CR1) [µM] | EC50 (mCX3CR1) [µM] | EC50 (rCX3CR1) [µM]
O=C(NCC1(CN2CCC(O)CC2)CCCC1)c1cc2c(s1)CCCCCC2 [Example 28, N-[[1-[(4-hydroxypiperidin-1-yl)methyl]cyclopentyl]methyl]-4,5,6,7,8,9-hexahydrocycloocta[b]thiophene-2-carboxamide] | 6.7 | 10 | 9.4
CC(C)(CNC(=O)c1cc2c(s1)CCCCCC2)CN1CCCCC1 [Example 13, N-(2,2-dimethyl-3-piperidin-1-ylpropyl)-4,5,6,7,8,9-hexahydrocycloocta[b]thiophene-2-carboxamide] | 9.6 | 16 | 16.9
O=C(NCC1(CN2CCCC2)CCCC1)c1cc2c(s1)CCCCCC2 [Example 5, N-[[1-(pyrrolidin-1-ylmethyl)cyclopentyl]methyl]-4,5,6,7,8,9-hexahydrocycloocta[b]thiophene-2-carboxamide] | 12.9 | 11.3 | 10.2
CN(C)CC(C)(C)CNC(=O)c1cc2c(s1)CCCCCC2 [Example 70, N-[3-(dimethylamino)-2,2-dimethylpropyl]-4,5,6,7,8,9-hexahydrocycloocta[b]thiophene-2-carboxamide] | 9.3 | 44.7 | 26.1
CC(C)(CNC(=O)c1cc2c(s1)CCCCCC2)CN1CCCC1 [Example 1, N-(2,2-dimethyl-3-pyrrolidin-1-ylpropyl)-4,5,6,7,8,9-hexahydrocycloocta[b]thiophene-2-carboxamide] | 13.9 | 15.7 | 13.9
O=C(NCC1(CN2CCCC(O)C2)CCCC1)c1cc2c(s1)CCCCCC2 (stereo not drawn) [Example 27, N-[[1-[(3-hydroxypiperidin-1-yl)methyl]cyclopentyl]methyl]-4,5,6,7,8,9-hexahydrocycloocta[b]thiophene-2-carboxamide] | 7.5 | 12.7 | 10.8
O=C(NCC1(CN2CCCC2)CC(O)C1)c1cc2c(s1)CCCCCC2 (stereo not drawn) [Example 32, N-[[3-hydroxy-1-(pyrrolidin-1-ylmethyl)cyclobutyl]methyl]-4,5,6,7,8,9-hexahydrocycloocta[b]thiophene-2-carboxamide] | 5.8 | 14.8 | 11.4
O=C(NCC1(CN2CCCCC2)CCCC1)c1cc2c(s1)CCCCCC2 [Example 15, N-[[1-(piperidin-1-ylmethyl)cyclopentyl]methyl]-4,5,6,7,8,9-hexahydrocycloocta[b]thiophene-2-carboxamide] | 5.5 | 24.2 | 20

The next lines start with the values.

EC50 (hCX3CR1) [µM] | EC50 (mCX3CR1) [µM] | EC50 (rCX3CR1) [µM] | Compound
6.5 | 11.5 | 9.5 | CN(C)CC1(CNC(=O)c2cc3c(s2)CCCCCC3)CCC1 [Example 23, N-[[1-[(dimethylamino)methyl]cyclobutyl]methyl]-4,5,6,7,8,9-hexahydrocycloocta[b]thiophene-2-carboxamide]
36.1 | 17 | 13.4 | CN(CCO)CC1(CNC(=O)c2cc3c(s2)CCCCCC3)CCC1 [Example 30, N-[[1-[[2-hydroxyethyl(methyl)amino]methyl]cyclobutyl]methyl]-4,5,6,7,8,9-hexahydrocycloocta[b]thiophene-2-carboxamide]
4.7 | 18.5 | 14.8 | CN(C)CC1(CNC(=O)c2cc3c(s2)CCCCCC3)CC(O)C1 (stereo not drawn) [Example 31, N-[[1-[(dimethylamino)methyl]-3-hydroxycyclobutyl]methyl]-4,5,6,7,8,9-hexahydrocycloocta[b]thiophene-2-carboxamide]
5.4 | 10.3 | 8.5 | CN(C)CC1(CNC(=O)c2cc3c(s2)CCCCCC3)CCCC1 [Example 2, N-[[1-[(dimethylamino)methyl]cyclopentyl]methyl]-4,5,6,7,8,9-hexahydrocycloocta[b]thiophene-2-carboxamide]
11.8 | 39.7 | 23.1 | O=C(NCC1(CN2CCC(O)C2)CCCC1)c1cc2c(s1)CCCCCC2 (racemic) [Example 25, N-[[1-[(3-hydroxypyrrolidin-1-yl)methyl]cyclopentyl]methyl]-4,5,6,7,8,9-hexahydrocycloocta[b]thiophene-2-carboxamide]
4.7 | 6.6 | 5.8 | O=C(NCC1(CN2CCCC2)CCC1)c1cc2c(s1)CCCCCC2 [Example 21, N-[[1-(pyrrolidin-1-ylmethyl)cyclobutyl]methyl]-4,5,6,7,8,9-hexahydrocycloocta[b]thiophene-2-carboxamide]
